These results are taken from patent US12624031B2, “Inhibitors of ubiquitin specific peptidase 22 (USP22) and uses thereof for treating diseases and disorders” (Northwestern University, priority 2022, dated 2026).

In assay [1] the target is human GST-USP22 with Sgf11, Sgf73 1-105 and Sus1 (Homo sapiens, UniProt Q9UPT9). The assay is described as follows: in vitro USP22 deubiquitination assay (re-constructed deubiquitination module). Type of assay: biochemical. Particulars: customized deubiquitination assay, human GST-USP22 with Sgf11, Sgf73 1-105, Sus1; read-out: IC50 in suppressing USP22 in vitro catalytic activity. As to the method: (A) The chemical structure of S02-S106 11-((4-cyanophenyl)amino)-7,8,9,10-tetrahydrobenzo(4,5)imidazole[1,2-b]isoquinoline-6-carbonitrile, (B & C) The efficacy of USP22i-S02 analogs in inhibiting USP22 catalytic activity was determined in vitro. The representative data from a triplicate analysis of S02-S106 with S02 as a control are shown (B). The IC50 of USP22i-S02 analogs in suppressing USP22 in vitro catalytic activity are shown (C). NA, not available.
human GST-USP22 with Sgf11, Sgf73 1-105 and Sus1, sequence (Q9UPT9 whole entry): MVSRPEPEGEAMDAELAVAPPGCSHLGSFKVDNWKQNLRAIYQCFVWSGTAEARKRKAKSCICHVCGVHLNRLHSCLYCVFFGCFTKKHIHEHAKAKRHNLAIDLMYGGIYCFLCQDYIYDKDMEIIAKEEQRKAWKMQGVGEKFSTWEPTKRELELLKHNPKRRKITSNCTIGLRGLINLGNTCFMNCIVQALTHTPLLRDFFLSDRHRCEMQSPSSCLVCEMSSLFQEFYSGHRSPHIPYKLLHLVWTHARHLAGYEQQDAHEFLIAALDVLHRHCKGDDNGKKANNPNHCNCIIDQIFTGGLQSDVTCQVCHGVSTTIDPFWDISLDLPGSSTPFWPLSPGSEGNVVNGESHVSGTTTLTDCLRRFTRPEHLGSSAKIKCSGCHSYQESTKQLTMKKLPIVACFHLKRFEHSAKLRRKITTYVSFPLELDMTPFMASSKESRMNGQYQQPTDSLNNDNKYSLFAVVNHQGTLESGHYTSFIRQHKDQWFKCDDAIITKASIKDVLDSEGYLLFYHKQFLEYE
human GST-USP22 with Sgf11, Sgf73 1-105 and Sus1, sequence (Q14CW9 whole entry partner): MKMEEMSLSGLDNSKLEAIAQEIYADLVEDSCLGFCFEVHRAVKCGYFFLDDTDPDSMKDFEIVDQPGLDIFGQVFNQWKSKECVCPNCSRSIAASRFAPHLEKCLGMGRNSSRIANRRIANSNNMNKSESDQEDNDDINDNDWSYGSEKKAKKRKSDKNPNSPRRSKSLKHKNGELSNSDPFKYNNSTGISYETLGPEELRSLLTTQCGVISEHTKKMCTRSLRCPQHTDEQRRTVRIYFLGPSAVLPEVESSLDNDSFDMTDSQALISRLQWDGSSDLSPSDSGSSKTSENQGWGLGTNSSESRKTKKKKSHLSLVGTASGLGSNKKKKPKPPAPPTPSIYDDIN
human GST-USP22 with Sgf11, Sgf73 1-105 and Sus1, sequence (O15265 1-105 partner limits assumed): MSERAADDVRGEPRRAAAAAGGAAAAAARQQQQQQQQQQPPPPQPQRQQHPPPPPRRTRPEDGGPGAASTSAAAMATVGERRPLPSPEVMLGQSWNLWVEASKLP
human GST-USP22 with Sgf11, Sgf73 1-105 and Sus1, sequence (Q9NPA8 whole entry partner): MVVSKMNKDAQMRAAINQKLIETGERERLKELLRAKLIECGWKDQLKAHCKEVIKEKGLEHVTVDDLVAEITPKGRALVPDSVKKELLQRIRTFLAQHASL
We purchased human recombinant Sgf11 and Sgf73 1-105 and Sus1 proteins from R&D Systems Inc, and re-constructed the deubiquitination activity with our human GST-USP22. The USP22 customized deubiquitination was optimized and used for in vitro screening the activity of synthetic USP22i-s02 analogs with the USP22i-s02 as a control (FIG. 12).

Assay [2] has as its system LLC1 tumors in WT mice. Put plainly: LLC1 tumor model in WT mice. Type of assay: in vivo. As to the method:
FIG. 5: Usp22 inhibitor administration enhances antitumor immunity. A, Structure of compound CS30 (Usp22i-S02). B, FOXP3 MFI in WT and 22KO of Treg cells after treatment with 20 μg/kg of Usp22i-S02 in vivo (n=3). C, Representative flow cytometry plot of FOXP3+CD25+MFI of CD4+ peripheral cells of mice treated with 20 μg/kg of Usp22i-S 02 relative to control (n=5). D, Graphical representation of Foxp3 MFI upon Usp22i-S02 administration (n=5). E, Tumor growth curve of LLC1 cells subcutaneously injected in the flank of WT mice with or without the addition of 20 mg/kg/time of the Usp22 inhibitor starting at day 15, in 100 μL of oil (n=4). F-G, Representative flow cytometry plot and graphical representation of % infiltration of CD4+ and CD8+ T cells within the tumor (n=4). H, Representative histogram plot and graphical representation of intratumoral Treg (itTreg) Foxp3 MFI (n=4). I, MFI of itTreg suppressive markers (n=3-4). J, Percent Foxp3+IFNg+itTreg cells in control and Usp22-S02 treated mice (n=3-4). B, D-E, G, H-I Two-way ANOVA with multiple comparisons between rows was performed to determine statistical significance. J, Unpaired two tailed T test was performed to determine significance. All data are presented as mean±stdev. NS, not significant. *P<0.05, **P<0.01, ***P<0.001, ****P<0.0001.
FIG. 7: Usp22i-S02 has little effect on naïve mice, yet enhances anti-tumor immunity in LLC1-challenged mice. A, Body weight of Usp22i-S02 treated mice verses DMSO treated controls over the course of treatment (n=4). A-F. Injections were twice a day for 3 consecutive days at 10 μg/kg (n=4). B, Percent of cell populations in naïve mice treated with Usp22i-S02 relative to DMSO control (n=3-4). C, Percent of KI-67+ cells in various compartments in naïve mice treated with Usp22i-S02 relative to DMSO control (n=3-4). D, Percent CD44^hiCD62L^lo in T cell populations gated on CD45+ cells in naïve mice treated with Usp22i-S02 relative to DMSO control (n=3). E, Percent Annexin+PI+ T cells gates on CD45+ cells in naïve mice treated with Usp22i-S02 relative to DMSO control (n=4). F-H, Organ toxicity panel (VetScan VS2 Comprehensive Diagnostic Rotor lot 1061AA2) of naïve mice treated with Usp22i-S02 relative to DMSO control (n=2-3). I, Growth curve of subcutaneously injected LLC1 in WT mice treated with Usp22i-S02 at 10 μg/kg (n=5-10). I-Q, Injections were twice a day for 5 consecutive days at 10 μg/kg. J, Weights of resected tumors at day 16 from I (n=10). K-L, Representative flow plot and graphical representation of infiltrating T cells gated on CD45+ cells (n=5). M-P, Characterization of intratumoral CD8+ T cells frome mice treated with Usp22i-S02 (n=3-5). Q, Percent of intratumoral Treg cells from mice treated with Usp22i-S02 verses DMSO control, gated on CD4+Foxp3+ from mice (n=5). A-E, I and L, Two-way ANOVA with Sidaks's multiple comparisons between rows relative to control was performed to determine statistical significance. F-H, J, and M-Q, Two-tailed unpaired t-test was performed to determine statistical significance. All data are presented as mean±stdev. NS, not significant. *P<0.05, **P<0.01, ***P<0.001, ****P<0.0001.
To determine the functionality of Usp22i-S02 as a potential therapeutic, we tested the inhibitor on established tumors. […] Further analysis of tumor infiltrating lymphocytes was done on mice treated immediately following tumor implantation (FIG. 7I).
LLC1 cells were transplanted into 6-to-8-week-old C57BL/6 male mice. Subcutaneous injections were performed in the right flank of mice in a final volume of 100 μL using […] per injection. The USP22i-S02 was injected intraperitoneally (i.p) at a concentration of 20 mg/kg/time, in 100 μL of oil, twice a day for 5 days beginning on the day of the LLC1 cells injection. Control animals received 100 μL of oil alone. Subcutaneous tumor diameters were measured daily with calipers until any tumor in the mouse cohort reached 2.5 cm in its largest diameter.

Assay [3] relates to FoxP3 expression in CD4+ natural T-regulatory cells. The assay is described as follows: FoxP3 expression in natural T-regulatory cells by flow cytometry. Particulars: concentration of 1-2 ug. Type of assay: cell-based, murine. As to the method: FIGS. 3 and 4: Change in FoxP3 expression in murine CD4+ natural T-regulatory cells. Murine lymphocytes were isolated from the spleens and lymph nodes and cultured with varying concentrations of inhibitor (0.25 μg/mL to 2 μg/mL) or DMSO, anti-CD3, anti-CD28, TGFβ, and IL-2. After two days, lymphocytes were analyzed by flow cytometry for FoxP3 expression in natural T-regulatory (nTregs) gated on CD3+CD4+CD25+FoxP3+. (FIG. 3) Representative histograms of FITC::FoxP3 MFI in nTregs cultured with inhibitors at a concentration of 2 μg/mL. (FIG. 4) Representative plot of FITC::FoxP3 geometric MFI in nTregs across different concentrations of inhibitor.
We then analyzed whether treatment of Tregs with the compounds S106, 107 and 110 inhibits USP22 activity in Tregs as measured by FoxP3 expression levels by flow cytometry.

For orientation: IC50 means the midpoint of a concentration-inhibition curve. In the case of `N#Cc1c2c(c(Nc3ccccc3)n3c1nc1ccccc13)CCCC2` [USP22i-S02, 11-anilino-7,8,9,10-tetrahydrobenzimidazo[1,2-b]isoquinoline-6-carbonitrile], the IC50 in assay [1] is approximately 4.7 µM. The “tumor growth of established LLC1 tumors” value in assay [2] (WT mice, 20 mg/kg/time starting at day 15) was “striking tumor rejection”. For the same molecule, in assay [2] (established LLC1 tumors), the “itTreg GITR and PD-1 levels” value is “lower levels of GITR and PD-1”; the “itTreg IFN-γ levels” value was “significantly higher levels of IFN-γ”. Besides, the “Teff cell tumor infiltration” value in assay [2] (established LLC1 tumors, WT mice) is given as “significant increase in Teff cell tumor infiltration”. The “intratumoral Foxp3+ Treg percentage” value in assay [2] (established LLC1 tumors, not splenic) is on record as “significantly decreased”. The “intratumoral CD8+ T cell phenotype” value in assay [2] (treated immediately following tumor implantation) is “less exhausted phenotype”. In addition, in assay [2] (treated immediately following tumor implantation (FIG. 7Q)), the “intratumoral Foxp3+ Treg percentage” value is “significantly decreased”. For the same molecule, in assay [2] (treated immediately following tumor implantation, twice a day for 5 days at 10 μg/kg), the tumor burden entry is reported as “decreased tumor burden”. For the same molecule, the “FoxP3 expression levels in Tregs” value in assay [3] is recorded as “did not reduce the levels of FoxP3”.
